# Reference: PMC11721817 (Toxicology Reports, 2024)
# Experiments:
# [1] = tested on: HCT-116 (human colorectal cancer cells); experiment: MTT cytotoxicity assay, HCT-116; format: cell-based; settings: for cell viability: HCT-116, 10 μM and 25 μM; for IC50: Homo sapiens, HCT-116, 24 h
# [2] = tested on: CT-26 (murine colorectal cancer cells); experiment: MTT cytotoxicity assay, CT-26; format: cell-based; settings: Mus musculus, CT26, 24 h
# red blood cells (RBCs) = experiment: Hemolysis assay; format: cell-based; settings: rat blood, 10 μM, 25 μM, 50 μM, and 100 μM, compared to positive control
# HCT-116 cells [3] = experiment: DNA fragmentation, Hoechst staining, HCT-116; format: cell-based, human; settings: HCT-116, 50 µM, 24 h
# CT-26 cells [4] = experiment: DNA fragmentation, Hoechst staining, CT-26; format: cell-based, murine; settings: CT-26, 50 µM, 24 h
# HCT-116 cells [5] = experiment: Cell migration; format: cell-based, human; settings: 24 h, control = 100 %
# CT-26 cells [6] = experiment: Cell migration; format: cell-based, murine; settings: 24 h, control = 100 %
# Wistar rats [7] = experiment: Lipid peroxidation assay; format: in vivo, rat; settings: 1000 mg/kg, compared to control
# Wistar rats [8] = experiment: Superoxide dismutase activity in organ homogenates; format: in vivo, rat
# Wistar rats [9] = experiment: Histopathological examination of liver, kidney and spleen; format: in vivo, rat; settings: for Liver sections, histopathology / Spleen sections, histopathology: H&E
# Wistar rats [10] = experiment: Serum biochemistry after acute oral administration; settings: n = 3; for Globulin: normal range 1.5–2.5, mean ± S.E.M; for A/G ratio: normal range 1.58–2.67, mean ± S.E.M; for Albumin: normal range 3.4–4.8, mean ± S.E.M; for Total protein: normal range 5.2–7.1, mean ± S.E.M; for SGPT (ALT): normal range 18–45, mean ± S.E.M; for ALP: normal range 62–230, mean ± S.E.M; for SGOT (AST): normal range 74–183, mean ± S.E.M; for Triglycerides: normal range 20–114, mean ± S.E.M
# Wistar rats [11] = experiment: Acute oral toxicity study; settings: for change in body weight / food consumed by animals (weight) / change in organ weight, Kidney / change in organ weight, Liver / change in organ weight, Spleen: mean ± S.E.M, n = 5; for body weight course: 7th and 14th day; for toxicity signs / tremors, change in eye and skin color / Mortality: oral; for Mortality: 2000 mg/kg
# [12] = 1000 mg/kg, compared with IG-01–007 and IG-01–008 at 300 mg/kg
# [13] = 1000 mg/kg, compared with control and 1 % DMSO
# [14] = 14th day, 1000 mg/kg, compared to control
smiles,measurement,setting,value
"CC(C)(C)Nc1c(-c2ccc(-c3ccccc3)cc2)nc2ccccn12 [IG-01–007, 2-([1,1’-biphenyl]-4-yl)-N-(tert-butyl)imidazo[1,2-a]pyridine-3-amine]",cell viability,[1],no significant reduction in cell viability
same,IC50,[1],30.1 ± 1.58 µM
same,IC50,[2],61.2 ± 21.2 µM
same,hemolytic activity,red blood cells (RBCs),did not show any hemolytic activity
same,DNA fragmentation,HCT-116 cells [3],DNA fragmentation
same,DNA fragmentation,CT-26 cells [4],DNA fragmentation
same,% migration of cell,"HCT-116 cells [5]; HCT-116, 25 μM",41.75%
same,% migration of cell,"HCT-116 cells [5]; HCT-116, 50 μM",35.07%
same,migration percentages,"CT-26 cells [6]; CT-26, 25 μM",45.61%
same,migration percentages,"CT-26 cells [6]; CT-26, 50 μM",30.62%
same,"MDA levels, liver",Wistar rats [7],significantly higher
same,"SOD level, spleen",Wistar rats [8]; [12],significant reduction of SOD level
same,"SOD level, spleen",Wistar rats [8]; [13],significant decrease seen in SOD level
same,"Liver sections, histopathology",Wistar rats [9]; 300 mg/kg,healthy with normal hepatocytes while some sections were found to have non-uniform cell structure
same,"Spleen sections, histopathology",Wistar rats [9]; 300 mg/kg,diffuse white pulp and distorted lymphoid architecture
same,"Liver sections, histopathology",Wistar rats [9]; 1000 mg/kg,healthy with mild activation of kupffer cells indicated by circle and moderate steatosis
same,"Spleen sections, histopathology",Wistar rats [9]; 1000 mg/kg,diffuse white pulp and distorted lymphoid architecture
same,Globulin,Wistar rats [10]; 300 mg/kg,3.80 ± 0.404 g/dL
same,A/G ratio,Wistar rats [10]; 300 mg/kg,0.69 ± 0.0608
same,Albumin,Wistar rats [10]; 300 mg/kg,3.33 ± 0.437 g/dL
same,Total protein,Wistar rats [10]; 300 mg/kg,7.03 ± 0.491 g/dL
same,SGPT (ALT),Wistar rats [10]; 300 mg/kg,47.66 ± 2.728 U/L
same,ALP,Wistar rats [10]; 300 mg/kg,307.33 ± 7.218 U/L
same,SGOT (AST),Wistar rats [10]; 300 mg/kg,193 ± 12.74 U/L
same,Globulin,Wistar rats [10]; 1000 mg/kg,4.006 ± 0.1034 g/dL
same,A/G ratio,Wistar rats [10]; 1000 mg/kg,0.6966 ± 0.0317
same,Albumin,Wistar rats [10]; 1000 mg/kg,3.683 ± 0.261 g/dL
same,Total protein,Wistar rats [10]; 1000 mg/kg,7.40 ± 0.324 g/dL
same,SGPT (ALT),Wistar rats [10]; 1000 mg/kg,75.33 ± 4.05 U/L
same,Triglycerides,Wistar rats [10]; 1000 mg/kg,115 ± 4.055 mg%
same,ALP,Wistar rats [10]; 1000 mg/kg,343.0 ± 10.785 U/L
same,SGOT (AST),Wistar rats [10]; 1000 mg/kg,242 ± 3.785 U/L
same,change in body weight,"Wistar rats [11]; 0 day, 300 mg/kg",233 ± 2 gm
same,food consumed by animals (weight),"Wistar rats [11]; 0 day, 300 mg/kg",93.8 ± 1.1575 gm
same,change in body weight,"Wistar rats [11]; 0 day, 1000 mg/kg",244 ± 15.6844 gm
same,food consumed by animals (weight),"Wistar rats [11]; 0 day, 1000 mg/kg",94.8 ± 0.80 gm
same,"change in organ weight, Kidney",Wistar rats [11]; 300 mg/kg,1.6568 ± 0.110 gm
same,"change in organ weight, Liver",Wistar rats [11]; 300 mg/kg,6.58 ± 0.535 gm
same,"change in organ weight, Spleen",Wistar rats [11]; 300 mg/kg,0.654 ± 0.075 gm
same,"change in organ weight, Kidney",Wistar rats [11]; 1000 mg/kg,1.854 ± 0.1179 gm
same,"change in organ weight, Liver",Wistar rats [11]; 1000 mg/kg,6.204 ± 0.2716 gm
same,"change in organ weight, Spleen",Wistar rats [11]; 1000 mg/kg,0.716 ± 0.0508 gm
same,body weight course,Wistar rats [11]; 1000 mg/kg,gradual decrease in body weight
same,change in body weight,"Wistar rats [11]; 7th day, 300 mg/kg",248 ± 3.391 gm
same,food consumed by animals (weight),"Wistar rats [11]; 7th day, 300 mg/kg",90.4 ± 1.288 gm
same,change in body weight,"Wistar rats [11]; 7th day, 1000 mg/kg",238 ± 16.17 gm
same,food consumed by animals (weight),"Wistar rats [11]; 7th day, 1000 mg/kg",88.6 ± 1.363 gm
same,change in body weight,"Wistar rats [11]; 14th day, 300 mg/kg",253 ± 8 gm
same,food consumed by animals (weight),"Wistar rats [11]; 14th day, 300 mg/kg",89.2 ± 2.009 gm
same,food intake,Wistar rats [11]; [14],significant decrease in food intake
same,change in body weight,"Wistar rats [11]; 14th day, 1000 mg/kg",231 ± 15.033 gm
same,food consumed by animals (weight),"Wistar rats [11]; 14th day, 1000 mg/kg",82.4 ± 1.939 gm
same,toxicity signs,Wistar rats [11]; 1000 mg/kg,toxicity signs were seen
same,"tremors, change in eye and skin color",Wistar rats [11]; 1000 mg/kg,"tremors, change in eye and skin color was observed"
same,Mortality,Wistar rats [11],Mortality was observed
"CC(C)(C)CC(C)(C)Nc1c(-c2ccc(-c3ccccc3)cc2)nc2cnccn12 [IG-01–008, 2-([1,1’-biphenyl]-4-yl)-N-(2,4,4-trimethylpentan-2-yl)imidazo[1,2-a]pyrazin-3-amine]",cell viability,[1],no significant reduction in cell viability
same,cytotoxicity,"[1]; HCT-116, 50 μM and 100 μM",higher cytotoxicity compared to IG-01–007
same,IC50,[1],30.9 ± 10.6 µM
same,IC50,[2],48.1 ± 22.6 µM
same,hemolytic activity,red blood cells (RBCs),did not show any hemolytic activity
same,DNA fragmentation,HCT-116 cells [3],DNA fragmentation
same,DNA fragmentation,CT-26 cells [4],DNA fragmentation
same,% migration of cell,"HCT-116 cells [5]; HCT-116, 25 μM",36.33%
same,% migration of cell,"HCT-116 cells [5]; HCT-116, 50 μM",20.76%
same,migration percentages,"CT-26 cells [6]; CT-26, 25 μM",35.65%
same,migration percentages,"CT-26 cells [6]; CT-26, 50 μM",39.17%
same,"MDA levels, liver",Wistar rats [7],significantly higher
same,"SOD level, spleen","Wistar rats [8]; 300 mg/kg, compared with control and 1 % DMSO",significant decrease seen in SOD level
same,"SOD level, spleen",Wistar rats [8]; [12],significant reduction of SOD level
same,"SOD levels, kidney","Wistar rats [8]; 1000 mg/kg, compared with IG-01–007 at 300 mg/kg",SOD levels were significantly decreased
same,"SOD level, spleen",Wistar rats [8]; [13],significant decrease seen in SOD level
same,"SOD levels, kidney","Wistar rats [8]; 1000 mg/kg, in comparison with 1 % DMSO",SOD levels significantly decreased
same,"Liver sections, histopathology",Wistar rats [9]; 300 mg/kg,mild steatosis and presence of micro and macro vesicles
same,"Spleen sections, histopathology",Wistar rats [9]; 300 mg/kg,ill-defined spleen section
same,"Liver sections, histopathology",Wistar rats [9]; 1000 mg/kg,moderate to severe fatty liver change with presence of sinusoidal spaces indicated by arrow and multi necrotic foci filled with mild hemorrhage
same,"Spleen sections, histopathology",Wistar rats [9]; 1000 mg/kg,disrupt white pulp
same,toxicity in liver tissues (abstract),Wistar rats [9]; doses of ≥ 1000 mg/kg,hepatic damage and cholestasis
same,Globulin,Wistar rats [10]; 300 mg/kg,4.30 ± 0.529 g/dL
same,A/G ratio,Wistar rats [10]; 300 mg/kg,0.736 ± 0.0523
same,Albumin,Wistar rats [10]; 300 mg/kg,3.166 ± 0.2905 g/dL
same,Total protein,Wistar rats [10]; 300 mg/kg,7.266 ± 0.523 g/dL
same,SGPT (ALT),Wistar rats [10]; 300 mg/kg,60.33 ± 3.756 U/L
same,ALP,Wistar rats [10]; 300 mg/kg,391.33 ± 9.261 U/L
same,SGOT (AST),Wistar rats [10]; 300 mg/kg,255 ± 5.291 U/L
same,Globulin,Wistar rats [10]; 1000 mg/kg,4.35 ± 0.144 g/dL
same,A/G ratio,Wistar rats [10]; 1000 mg/kg,0.923 ± 0.0648
same,Albumin,Wistar rats [10]; 1000 mg/kg,3.67 ± 0.2055 g/dL
same,Total protein,Wistar rats [10]; 1000 mg/kg,7.60 ± 0.3183 g/dL
same,SGPT (ALT),Wistar rats [10]; 1000 mg/kg,79.0 ± 1.732 U/L
same,Triglycerides,Wistar rats [10]; 1000 mg/kg,115.33 ± 5.487 mg%
same,ALP,Wistar rats [10]; 1000 mg/kg,501.66 ± 13.64 U/L
same,SGOT (AST),Wistar rats [10]; 1000 mg/kg,302.33 ± 4.096 U/L
same,change in body weight,"Wistar rats [11]; 0 day, 300 mg/kg",242 ± 5.1478 gm
same,food consumed by animals (weight),"Wistar rats [11]; 0 day, 300 mg/kg",92.2 ± 0.374 gm
same,change in body weight,"Wistar rats [11]; 0 day, 1000 mg/kg",249 ± 8.124 gm
same,food consumed by animals (weight),"Wistar rats [11]; 0 day, 1000 mg/kg",92.4 ± 1.166 gm
same,"change in organ weight, Kidney",Wistar rats [11]; 300 mg/kg,2.058 ± 0.123 gm
same,"change in organ weight, Liver",Wistar rats [11]; 300 mg/kg,6.21 ± 0.15 gm
same,"change in organ weight, Spleen",Wistar rats [11]; 300 mg/kg,0.83 ± 0.0763 gm
same,"change in organ weight, Kidney",Wistar rats [11]; 1000 mg/kg,1.954 ± 0.110 gm
same,"change in organ weight, Liver",Wistar rats [11]; 1000 mg/kg,6.74 ± 0.332 gm
same,"change in organ weight, Spleen",Wistar rats [11]; 1000 mg/kg,0.747 ± 0.1135 gm
same,body weight course,Wistar rats [11]; 1000 mg/kg,gradual decrease in body weight
same,food consumption,"Wistar rats [11]; 7th day, 300 mg/kg and 1000 mg/kg, compared to control",significant decrease in food consumption
same,change in body weight,"Wistar rats [11]; 7th day, 300 mg/kg",254 ± 6.595 gm
same,food consumed by animals (weight),"Wistar rats [11]; 7th day, 300 mg/kg",86.2 ± 0.969 gm
same,change in body weight,"Wistar rats [11]; 7th day, 1000 mg/kg",236 ± 8.124 gm
same,food consumed by animals (weight),"Wistar rats [11]; 7th day, 1000 mg/kg",83.2 ± 0.86 gm
same,food intake,"Wistar rats [11]; 14th day, 300 mg/kg and 1000 mg/kg, compared to 1 % DMSO",significant reduction in food intake
same,food intake,"Wistar rats [11]; 14th day, 300 mg/kg, compared to control",significant decrease in food intake
same,change in body weight,"Wistar rats [11]; 14th day, 300 mg/kg",257 ± 6.04 gm
same,food consumed by animals (weight),"Wistar rats [11]; 14th day, 300 mg/kg",81.2 ± 0.916 gm
same,food intake,Wistar rats [11]; [14],significant decrease in food intake
same,change in body weight,"Wistar rats [11]; 14th day, 1000 mg/kg",225 ± 8.366 gm
same,food consumed by animals (weight),"Wistar rats [11]; 14th day, 1000 mg/kg",76 ± 1.702 gm
same,body weight,"Wistar rats [11]; day 14th, 1000 mg/kg, compared to control",significantly lowered
same,toxicity signs,Wistar rats [11]; 1000 mg/kg,toxicity signs were seen
same,"tremors, change in eye and skin color",Wistar rats [11]; 1000 mg/kg,"tremors, change in eye and skin color was observed"
same,Mortality,Wistar rats [11],Mortality was observed
